In PubChem BioAssay AID1963439 (Molecular Pharmacology Branch, DTP, NCI, 2024):
“And” between values parts separate entries of the source, which are not always exact repeats. Identical values can stand only once.

Test system: NCI-H196 complex spheroids with HUVEC/MSC, growth % T/C
Test: Anticancer human tumor NCI-H196 cell line growth inhibition [Asc];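 note: spheroids exposed to compound for 7 days before measurement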;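 for viability, T/C: 100% = DMSO vehicle control wells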
Details: for viability, T/C: stronger effect = lower value
Description: Multicellular complex tumor spheroid response to apoptosis pathway targeting inhibitors Alrizomadlin, Pelcitoclax, and Dasminapant in combination with a variety of drugs and investigational agents in selected tumor cell lines
The MDM2 inhibitor alrizomadlin, the Bcl-2/Bcl-xL inhibitor pelcitoclax, and the IAPs inhibitor dasminapant were evaluated both individually and in combination with standard of care and investigational anticancer small molecules within a complex spheroid model of solid tumors. . Complex spheroids include a stromal component modeled by human endothelial cells (HUVEC) and fibroblasts modeled by human mesenchymal stem cells (MSCs). The concentration ranges selected for each drug and investigational agent were based upon clinically achievable concentrations if the clinical Cmax of the agent was known.
Compounds. The drugs and investigational agents: alrizomadlin (APG-115; NSC831270), pelcitoclax (APG-1252; NSC835773), dasminapant (APG-1387;NSC834197), TAK-243 (NSC785004), copanlisib (NSC809693), olaparib (NSC753686), talazoparib (NSC767125), cobimetinib (NSC 768068), eltanexor (KPT-8602, NSC 794443), abemaciclib (NSC 768073), sotorasib (NSC818433), adagrasib (NSC 831453), MRTX-1133 (NSC 836407), Iadademestat (ORY1001, NSC 806812), and RMC-4630 (NSC839698), were obtained from the NCI Developmental Therapeutics Program Chemical Repository. The FDA-approved anticancer drug set is available from the Developmental Therapeutics Program at https://dtp.cancer.gov/organization/dscb/obtaining/available plates.htm. […] The stock solutions were prepared in dimethyl sulfoxide (DMSO, Sigma-Aldrich, St. Louis, MO, cat. D2650) at 800-fold the tested concentration and stored at -70 degrees C prior to their use. All drugs and investigational agents were tested over a range starting from a high concentration at or near the clinical Cmax and decreasing in half-log increments. If the clinical Cmax for an agent had not been determined, the highest concentration tested was 10 microM.
The patient-derived cancer (PDC) cell lines include five colon adenocarcinomas: 186277-243-T-J2-PDC, 616215-338-R-J1-PDC, 439559-082-T-J2-PDC, 463943-066-T-J2-PDC, and 519858-162-T-J1-PDC; three pancreatic carcinomas: 323965-272-R-J2-PDC, 521955-158-R6-J3-PDC, and 521955-158-R2-J5-PDC; two uterine sarcomas: 327498-152-R-J2-PDC and 993429-296-R-J1-PDC; two rhabdomyosarcomas: 755483-174-R-J1-PDC and 772245-204-R-J1-PDC; two soft tissue sarcomas: 126254-015-R-J1-PDC and 494315-158-R-J1-PDC; two malignant fibrous histiocytomas: 317291-083-R-J1-PDC and 596521-263-R-J1-PDC; two breast carcinomas: 171881-019-R-J1-PDC and 885512-296-R-J2-PDC; and one ovarian carcinoma: 6556581-035-R-J-PDC were obtained from the NCI PDMR, (https://pdmr.cancer.gov). The established cell lines HSSY-2 synovial sarcoma (RRID:CVCL 8719), SYO-1 synovial sarcoma (RRID:CVCL_7146), MPNST malignant peripheral neural sheath tumor were obtained from the Sloan Kettering Institute. The following established cell lines were purchased from the American Type Culture Collection (ATCC, Manassas, VA), Sor the received from the NCI repository:, PANC-1 pancreatic carcinoma (CRL-1469, RRID:CVCL_0480), OVCAR-5 ovarian carcinoma (RRID:CVCL_1628), OVCAR-8 ovarian carcinoma (RRID:CVCL_1629), , MCF-7 breast carcinoma (CRL-12584, RRID:CVCL_0031), MDA-MB-231 breast carcinoma (CRL-12532, RRID:CVCL_0062), NCI-H1876 small cell lung carcinoma (CRL-5902, RRID:CVCL_1503), NCI-H510A small cell lung carcinoma (HTB-184, RRID:CVCL_1565), NCI-H1417 (CRL-5869, RRID:CVCL_1469), and NCI-H196 small cell lung carcinoma (CRL-5823, RRID:CVCL_1509). Dr. Peter Houghton (Greehey Children's Cancer Research Institute, University of Texas Health Science Center, San Antonio, TX) provided Rh-18 rhabdomyosarcoma (RRID:CVCL_1659). Pooled donor human umbilical vein endothelial cells (HUVEC, Lonza, cat. CC-2519) and human mesenchymal stem cells (hMSC, Lonza, cat. PT-2501) were purchased from Lonza (Walkersville, MD).
Cell Culture. […]

SMILES: Cc1nc(N2CCC3(CC2)COC(C)C3N)c(CO)nc1Sc1ccnc(N)c1Cl (configuration not stated) + CCN1C(C(=O)NC23CCC(C(=O)O)(CC2)CC3)C(c2cccc(Cl)c2F)C2(C(=O)Nc3cc(Cl)ccc32)C12CCCCC2
- IC50 (curve of first compound, second compound 0.03 µM): 1540 nM
- IC50 (curve of first compound, second compound 0.0949 µM): 1900 nM
- IC50 (curve of first compound, second compound 0.3 µM): 1600 nM
- IC50 (curve of first compound, second compound 0.949 µM): 1730 nM
- IC50 (curve of first compound, second compound 3 µM): 1570 nM
- viability, T/C (second compound 0.03 µM, first compound 0.00949 µM): 102%
- viability, T/C (second compound 0.03 µM, first compound 0.03 µM): 103%
- viability, T/C (second compound 0.03 µM, first compound 0.0949 µM): 115%
- viability, T/C (second compound 0.03 µM, first compound 0.3 µM): 102%
- viability, T/C (second compound 0.03 µM, first compound 0.949 µM): 64.6%
- viability, T/C (second compound 0.03 µM, first compound 3 µM): 30.2%
- viability, T/C (second compound 0.0949 µM, first compound 0.00949 µM): 108%
- viability, T/C (second compound 0.0949 µM, first compound 0.03 µM): 113%
- viability, T/C (second compound 0.0949 µM, first compound 0.0949 µM): 109%
- viability, T/C (second compound 0.0949 µM, first compound 0.3 µM): 95.5%
- viability, T/C (second compound 0.0949 µM, first compound 0.949 µM): 74.1%
- viability, T/C (second compound 0.0949 µM, first compound 3 µM): 34.5%
- viability, T/C (second compound 0.3 µM, first compound 0.00949 µM): 118%
- viability, T/C (second compound 0.3 µM, first compound 0.03 µM): 124%
- viability, T/C (second compound 0.3 µM, first compound 0.0949 µM): 119%
- viability, T/C (second compound 0.3 µM, first compound 0.3 µM): 99.8%
- viability, T/C (second compound 0.3 µM, first compound 0.949 µM): 69.1%
- viability, T/C (second compound 0.3 µM, first compound 3 µM): 27.9%
- viability, T/C (second compound 0.949 µM, first compound 0.00949 µM): 124%
- viability, T/C (second compound 0.949 µM, first compound 0.03 µM): 137%
- viability, T/C (second compound 0.949 µM, first compound 0.0949 µM): 119%
- viability, T/C (second compound 0.949 µM, first compound 0.3 µM): 107%
- viability, T/C (second compound 0.949 µM, first compound 0.949 µM): 72.1%
- viability, T/C (second compound 0.949 µM, first compound 3 µM): 29.9%
- viability, T/C (second compound 3 µM, first compound 0.00949 µM): 136%
- viability, T/C (second compound 3 µM, first compound 0.03 µM): 130%
- viability, T/C (second compound 3 µM, first compound 0.0949 µM): 121%
- viability, T/C (second compound 3 µM, first compound 0.3 µM): 106%
- viability, T/C (second compound 3 µM, first compound 0.949 µM): 67.4%
- viability, T/C (second compound 3 µM, first compound 3 µM): 26.5%

SMILES: CCN1C(C(=O)NC23CCC(C(=O)O)(CC2)CC3)C(c2cccc(Cl)c2F)C2(C(=O)Nc3cc(Cl)ccc32)C12CCCCC2 (configuration not stated) + CNC(C)C(=O)NC1CN(S(=O)(=O)c2cccc(S(=O)(=O)N3CCC4CCC(C(=O)NC(c5ccccc5)c5ccccc5)N4C(=O)C(NC(=O)C(C)NC)C3)c2)CCC2CCC(C(=O)NC(c3ccccc3)c3ccccc3)N2C1=O
- IC50 (curve of first compound, second compound 0.01 µM): < 9.49 nM
- IC50 (curve of first compound, second compound 0.0316 µM): < 9.49 nM
- IC50 (curve of first compound, second compound 0.1 µM): < 9.49 nM
- IC50 (curve of first compound, second compound 0.316 µM): < 9.49 nM
- IC50 (curve of first compound, second compound 1 µM): < 9.49 nM
- viability, T/C (second compound 0.01 µM, first compound 0.00949 µM): 6.77%
- viability, T/C (second compound 0.01 µM, first compound 0.03 µM): 8.8%
- viability, T/C (second compound 0.01 µM, first compound 0.0949 µM): 6.77%
- viability, T/C (second compound 0.01 µM, first compound 0.3 µM): 4.95%
- viability, T/C (second compound 0.01 µM, first compound 0.949 µM): 4.31%
- viability, T/C (second compound 0.01 µM, first compound 3 µM): 2.99%
- viability, T/C (second compound 0.0316 µM, first compound 0.00949 µM): 4.48%
- viability, T/C (second compound 0.0316 µM, first compound 0.03 µM): 6.6%
- viability, T/C (second compound 0.0316 µM, first compound 0.0949 µM): 5.08%
- viability, T/C (second compound 0.0316 µM, first compound 0.3 µM): 5.41%
- viability, T/C (second compound 0.0316 µM, first compound 0.949 µM): 2.77%
- viability, T/C (second compound 0.0316 µM, first compound 3 µM): 1.77%
- viability, T/C (second compound 0.1 µM, first compound 0.00949 µM): 3.71%
- viability, T/C (second compound 0.1 µM, first compound 0.03 µM): 4.01%
- viability, T/C (second compound 0.1 µM, first compound 0.0949 µM): 3.17%
- viability, T/C (second compound 0.1 µM, first compound 0.3 µM): 3.11%
- viability, T/C (second compound 0.1 µM, first compound 0.949 µM): 1.37%
- viability, T/C (second compound 0.1 µM, first compound 3 µM): 2.04%
- viability, T/C (second compound 0.316 µM, first compound 0.00949 µM): 2.48%
- viability, T/C (second compound 0.316 µM, first compound 0.03 µM): 4.45%
- viability, T/C (second compound 0.316 µM, first compound 0.0949 µM): 3.05%
- viability, T/C (second compound 0.316 µM, first compound 0.3 µM): 1.97%
- viability, T/C (second compound 0.316 µM, first compound 0.949 µM): 0.96%
- viability, T/C (second compound 0.316 µM, first compound 3 µM): 1.45%
- viability, T/C (second compound 1 µM, first compound 0.00949 µM): 2.97%
- viability, T/C (second compound 1 µM, first compound 0.03 µM): 4.34%
- viability, T/C (second compound 1 µM, first compound 0.0949 µM): 2.12%
- viability, T/C (second compound 1 µM, first compound 0.3 µM): 1.73%
- viability, T/C (second compound 1 µM, first compound 0.949 µM): 1.39%
- viability, T/C (second compound 1 µM, first compound 3 µM): 1.39%

SMILES: O=C(c1cc(Cc2n[nH]c(=O)c3ccccc23)ccc1F)N1CCN(C(=O)C2CC2)CC1
- viability, T/C (compound 0.0316 µM): 94% and 96.9%
- viability, T/C (compound 0.1 µM): 96.5% and 113%
- viability, T/C (compound 0.316 µM): 101% and 94.4%
- viability, T/C (compound 1 µM): 99.6% and 101%
- viability, T/C (compound 3.16 µM): 96.3% and 102%
- viability, T/C (compound 10 µM): 97.1% and 97.2%
- IC50 (curve of compound): > 10000 nM
